# Assay results from patent US5914242A, “Method for diminishing myocardial infarction using protein phosphatase inhibitors” (priority 1997, dated 1999).
# What was measured:
# [1] = system: rPP1; assay: Inhibition of recombinant PP1; format: biochemical; conditions: bacterially expressed human PP1
# From the text: (§1) PP1, an enzyme highly homologous to PP2A, could be expressed in a stable manner and in relatively large amounts. Thus, human PP1 was cloned and subcloned into a bacterial expression vector as was done for PP2A. […] To create a hybrid enzyme (a PP1/PP2A chimera) that could be expressed stably like rPP1 but would bind okadaic acid with high affinity like PP2A, a number of mutant forms of PP1 and PP2A were constructed. Then, through mutational analysis, the okadaic acid binding domain of PP2A was identified. The okadaic acid binding domain from PP2A was cloned behind the amino terminal domain of PP1. The hybrid, referred to as CRHM-2, was subcloned into an expression vector. Restriction analysis of CRHM-2 confirmed the identity of the construct.
# [2] = system: PP1/PP2A-chimera (CRHM2); assay: Inhibition of recombinant PP1/PP2A chimera; format: biochemical, human PP1 / bovine PP2A; conditions: enzyme printed as rPP2Ac-1
# Protocol: FIG. 6: Sequence of a PP1/PP2A chimera. To characterize the fostriecin binding site, the N-terminal region of PP1 was ligated to the C-terminal region of PP2A (in bold) to produce a PP1/PP2A-chimera (CRHM2). Previous studies indicate that the okadaic acid binding domain is contained in the C-terminal region of PP2A that was incorporated into CRHM2.
# FIG. 7: Effect of fostriecin and okadaic acid on the activity of recombinant CRHM2. CRHM2 activity was assayed in the presence of the indicated amount of fostriecin (FIG. 7A) or okadaic acid (FIG. 7B). […] Assays were conducted as described in FIG. 5. Each point represents the mean ± SE (n>6).
# as §1
# In these studies, the bacterial expressed PP1/PP2A hybrid enzyme was produced by growing appropriate strains of transformed E. coli at 18° C. for 48 hours in LB-media containing 50 μg/ml ampicillin, 1 mM MnCl2, and 50 μM IPTG. The bacteria were lysed with a French Press, and after centrifugation at 15,000×g for 45 min, the phosphatase was partially purified via ion-exchange [High Q (BioRad) and MonoQ (Pharmacia)] and affinity [Heparin-Sepharose (Pharmacia)] chromatography. The sensitivity of the chimera to fostriecin was determined employing the same protein phosphatase assay employed with endogenous PP1 or PP2A, with the addition of MnCl2 (1 mM) to the assay buffer.
structure (smiles),measurement,setting,value
"C=C1[C@@H](O)[C@@H]2O[C@]3(CC[C@H](/C=C/[C@@H](C)[C@@H]4CC(C)=C[C@@]5(O[C@H](C[C@@](C)(O)C(=O)O)CC[C@H]5O)O4)O3)CC[C@H]2O[C@@H]1[C@@H](O)C[C@H](C)[C@H]1O[C@@]2(CCCCO2)CC[C@H]1C [okadaic acid, reference compound]","sensitivity of rPP1 to inhibition, relative to PP2A",[1],less sensitive to inhibition by okadaic acid than PP2A
same,binding affinity to the recombinant hybrid enzyme,[2],comparable affinity to PP2A
